Measurements taken from article PMC12040169 (PLOS Biology, 2025).

experiment: in vitro; conditions: human, hela cells, % viability

In order of rising viability at 28.5 h, 10 µM:
1. O=C(CC1C(=O)N(c2cccc(Cl)c2)C(=O)N1CCc1cccs1)Nc1ccccc1 (stereo not drawn) [CBK267499]  79.7%
2. COc1ccc(CCCC(=O)Nc2ccc(N3CCNCC3)nc2)cc1OC [CBK028272T]  82.4%
3. N#Cc1c(N)ncnc1-c1ccccc1 [CBK102172]  84.2%
4. Cc1cc(C)n(C(C)CC(=O)NCc2ccccc2-n2ccnc2)n1 (stereo not drawn) [CBK281518]  84.3%
5. CCc1nnsc1C(=O)Nc1nn(C)c2cccc(N3CCOCC3)c12 [CBK307671]  84.4%
6. O=C(Nc1nc(OCC(F)(F)F)cnc1-c1ccc(Cl)cc1Cl)c1cc2ccccc2s1 [CBK145358]  87.4%
7. O=C(Nc1cnc(-c2cccc(C(F)(F)F)c2)c(-c2ccco2)n1)c1ccccn1 [CBK036873]  88.5%
8. Cc1ccc(-n2c(SCC(=O)Nc3ccccc3F)nnc2-c2ccccc2O)c(C)c1 [CBK268905]  88.6%
9. Cc1cccc(-c2ncc(NC(=O)Cc3ccc(OC(F)(F)F)cc3)nc2-c2cccnc2)c1 [CBK037030]  89.2%
10. CC(=O)Nc1ccc(CN2Cc3nc[nH]c3C[C@H]2c2nc(-c3ccc(F)cc3)no2)cc1 [CBK288956]  89.7%
11. COc1ccc(C(=O)N[C@@H]2CN(Cc3ccc(CO)o3)CCC[C@H]2O)cc1 [CBK289067]  89.8%
12. CCOC(=O)[C@H]1CC[C@]2(CC1)CNC(=O)c1cc(Cl)ccc1O2 [CBK284849]  89.9%
13. Cc1ccc(-c2nnc([C@H]3CCN(Cc4ccc(CO)o4)C3)o2)cc1 [CBK289399]  90%
14. CSc1ncc(C(=O)N2CCC(N3CCCC(CO)C3)CC2)c(=O)[nH]1 (stereo not drawn) [CBK307338]  90.3%
15. COC(=O)CCNc1n[nH]c(=O)[nH]c1=O [CBK217927]  90.4%
16. CC(CN1CCCCC1)NC(=O)c1cc(-c2ccncc2)nc2ccc(Br)cc12 (stereo not drawn) [CBK267756]  90.6%
17. Cc1cc(S(=O)(=O)N2CCN(CCO)C(C)C2)sc1Cl (stereo not drawn) [CBK304074]  91.4%
18. CC(NCC(=O)NC1(C#N)CCCCC1)C(C)n1cccn1 (stereo not drawn) [CBK305129]  91.4%
19. O=C(CCn1cnc2ccccc2c1=O)Nc1cccc(C(F)(F)F)c1 [CBK267687]  91.5%
20. CCS(=O)(=O)N1CCN(Cc2ccccc2OC)CC1 [CBK264280G]  92.7%
21. COc1cccc(OCCO)c1 [CBK000514]  93.1%
22. COC(=O)[C@@H]1Cc2ncn(Cc3ccc(Cl)cc3)c2CN1C(=O)c1ccc(C#N)cc1 [CBK288984]  94.5%
23. CCOc1ccc(-c2cncc(NCCc3ccncc3)n2)cc1 [CBK065774]  94.6%
24. Cc1nn(C)c(C)c1C1CCCN1CC(=O)NCc1ccccn1 (stereo not drawn) [CBK305501]  94.9%
25. Cc1sc(-c2cccs2)nc1OC(=O)c1cccc(C(F)(F)F)c1 [CBK067748]  96.1%
26. Nc1nonc1-n1cc(CN2CCCCC2)nn1 [CBK307044]  97.1%
27. C/C(=N\NC(=O)CCc1c(C)n[nH]c1C)c1ccc(N)cc1 [CBK262935]  97.7%
28. COCc1cc2n[nH]c(=O)n2c(-c2ccccc2)n1 [CBK288507]  98.3%
29. O=C(CCCc1ccccc1)Nc1ccc(O)cc1C(=O)O [CBK131699]  99.7%
30. O=C(NCc1cccc2ccccc12)c1ccccc1-n1cccc1 [CBK149585]  99.8%
31. CCNC(=O)N1CC2(CCN(CCSC)CC2)c2ccccc21 [CBK126709]  101%
32. CC1CCCN(c2ccc(NC(=O)c3cccs3)cc2[N+](=O)[O-])C1 (stereo not drawn) [CBK266402]  102%
33. Cc1ccc(C(=O)Nc2cccc3cccnc23)cc1Br [CBK265189]  102%
34. O=C(c1cccnc1)C1CCN(C(=O)c2cccs2)CC1 [CBK283528]  102%
35. Cc1c(C(=O)C2=C(O)C(=O)N(Cc3cccnc3)C2c2ccc(F)cc2)cnn1-c1ccccc1 (stereo not drawn) [CBK266541]  105%
36. COC(=O)c1sc(NC(=O)C2CCCCC2C(=O)O)c(C(=O)OC)c1C (stereo not drawn) [CBK265389]  106%
37. CCN(CC)Cc1ccc2[nH]c(=O)c(CNCc3ccc(OC)cc3)cc2c1 [CBK132113]  106%
38. O=C(C1CC1)N1CCC2(CC1)Nc1cccnc1-n1cccc12 [CBK284504]  107%
39. COc1ncccc1NC(=O)CSCC#N [CBK306314]  108%
40. CCC(C)NC(=O)c1ccccc1NS(=O)(=O)c1cc(C(=O)O)cs1 (stereo not drawn) [CBK295652]  108%
41. CN(Cc1cccc2ncccc12)C(=O)c1cc(C2CC2)nn1C [CBK282537]  108%
42. COc1ccccc1CCCN1CCC2(C1)c1[nH]c3ccccc3c1CCN2S(C)(=O)=O (stereo not drawn) [CBK074095]  113%
43. COc1ccc2cc(C(=O)N(CCO)Cc3ccc(C)s3)n(C)c2c1 [CBK306831]  116%
44. Cc1ccc(CNC(=O)CCC(=O)O)cc1 [CBK058951]  120%

same assay, conditions: human, hela cells, % viability, bulk resorufin, single well

With `CC(C)C(=O)N1CCC2(CC1)OCc1cc(Cl)ccc1O2` [CBK061121] the viability at 28.5 h, 10 µM was 89.6%.
